From ChEMBL document CHEMBL1287642, “Synthesis, antiviral activity and cytotoxicity evaluation of Schiff bases of some 2-phenyl quinazoline-4(3)H-ones” (Eur J Med Chem, 2010)
In brackets after ≈: the same amount, converted by molar mass.

Test system: Vaccinia virus
Assay: Antiviral activity against Vaccinia virus infected in human HEL cells assessed as protection against virus-induced cytopathogenicity after 2 days
Assay type: functional, organism-based
Conditions: Orthopoxvirus vaccinia, 48 h

`Nc1nc2c(ncn2COC(CO)CO)c(=O)[nH]1` [GANCICLOVIR] was tested, and the EC50 was > 100 µg/mL.

`Nc1ccn(C[C@@H](CO)OCP(=O)(O)O)c(=O)n1.O.O` [CIDOFOVIR] was tested, and the EC50 was 8 µg/mL.

`COc1ccc(/C=N/n2c(-c3ccccc3)nc3ccccc3c2=O)cc1O` gave an EC50 of 20 µg/mL (≈ 53.9 µM).

`O=c1c2ccccc2nc(-c2ccccc2)n1/N=C/c1ccc(Cl)cc1` showed an EC50 of 20 µg/mL (≈ 55.6 µM).

`O=c1c2ccccc2nc(-c2ccccc2)n1/N=C/c1ccccc1O` was tested, and the EC50 was 0.8 µg/mL (≈ 2.34 µM).

For `O=c1c2ccccc2nc(-c2ccccc2)n1/N=C/c1ccc(O)cc1`, the EC50 was 12 µg/mL (≈ 35.2 µM).

`COc1ccccc1/C=N/n1c(-c2ccccc2)nc2ccccc2c1=O` was tested, and the EC50 was > 20 µg/mL.

For `C/C(=N\n1c(-c2ccccc2)nc2ccccc2c1=O)c1ccccc1`, the EC50 was > 100 µg/mL.

For `NC(=O)c1ncn([C@@H]2O[C@H](CO)[C@@H](O)[C@H]2O)n1` [RIBAVIRIN], the EC50 was > 250 µg/mL.

For `C/C(=N\n1c(-c2ccccc2)nc2ccccc2c1=O)c1ccc(O)cc1`, the EC50 was > 100 µg/mL.

Work on `COc1ccc(/C=N/n2c(-c3ccccc3)nc3ccccc3c2=O)cc1` yielded an EC50 of 9 µg/mL (≈ 25.3 µM).

`O=c1[nH]c(=O)n([C@H]2C[C@H](O)[C@@H](CO)O2)cc1/C=C/Br` [BRIVUDINE] was tested, and the EC50 was 4 µg/mL (≈ 12 µM).

For `O=c1c2ccccc2nc(-c2ccccc2)n1/N=C/c1cccc([N+](=O)[O-])c1`, the EC50 was > 20 µg/mL.

`O=c1c2ccccc2nc(-c2ccccc2)n1/N=C/c1ccccc1` was tested, and the EC50 was 9 µg/mL (≈ 27.7 µM).
